Source: patent EP1131089B1, “STABLE AQUEOUS INSULIN PREPARATIONS WITHOUT PHENOL AND CRESOL” (Novo Nordisk A/S, priority 1998, dated 2000)

Tests used:
[1] = system: human insulin; experiment: Chemical stability at 37 °C, covalent insulin polymer determined by size exclusion chromatography; type: physicochemical; conditions: stabiliser equimolar to insulin, 0.5 Zn2+/insulin, NaCl 15 mM, glycylglycine 7 mM, tween 20 0.01 %, pH 7.5
Protocol: (§1) 27.5 ml of a 21 mM insulin stock solution was made by dissolving 3.707 g zinc free human insulin in 14 ml water and adding 2888 µl of 0.1 M ZnCl2 and 7 ml water before adjusting pH to 7.5 by 0.2 M NaOH and finally adding water to 27.5 ml, calculating the specific volume of insulin as 0.7 µl/mg. The stock solution was filtrated. A preparation of 3.5 ml 15 mM insulin was then made by adding 23 µl 2.3 M stabiliser in ethanol, 49 µl 0.5 M glycylglycine and 35 µl 1 % Tween 20 and water to 3.5 ml. The solution was thereafter diluted with medium containing sodium chloride 15 mM, glycylglycine 7 mM, Tween 20 0.01 %, pH 7.5 to 12, 9, 6, 3 and 0.6 mM insulin and stored at 5 °C for visual inspection. The reference solution was made by the same way but without adding a stabiliser. The chemical stability of the insulin solutions were followed at 37 °C for two concentrations, 3 and 15 mM, by determination of covalent insulin polymer by size exclusion chromatography. The analysis of insulin polymer was performed on Waters PROTEIN PAK 125 (250 x 8 mm) with an eluent containing 2.5 M acetic acid, 4 mM L-arginine and 20 %(V/V) acetonitrile at a flow rate of 1 ml/min. and ambient temperature. Detection was performed with a tunable absorbance detector (Waters 486) at 276 nm. Injection volume were […] for 3 and 15 mM insulin solutions, respectively.
(§2) 3.26 g human insulin (0.4 equivalent Zn^2+ per insulin) was dispersed in water in 18 ml water on icebath and added 490 µl 0.5 M glycylglycine and 1628 µl sodium hydroxide (3.1 equivalent) and stirred slowly overnight at 5 °C. 613 µl 0.1 M zinc chloride (0.1 equivalent of zinc) was then added the solution, pH adjusted to 7.5 by 410 µl 1 M hydrochloric acid (0.8 equivalent of chloride) and the volume adjusted to 25 ml by water. Finally the stock solution of 21 mM insulin was filtrated. 3.57 ml of the stock solution was added 50 µl 1 % tween 20, 750 µl 0.1 M stabiliser and 630 µl water to obtain 5 ml 15 mM insulin formulation. Finally the preparation was diluted with medium containing sodium chloride, glycylglycine and detergent to obtain 12, 9, 6, and 3 mM of human insulin and stored at 5 °C for visual inspection. The chemical stability of 3 and 15 mM insulin solutions were followed at 37 °C by determination of covalent insulin polymer by size exclusion chromatography.

[2] = system: human insulin; experiment: Physical stability of insulin solution with stabiliser, visual inspection for precipitation on storage at 5 °C; type: physicochemical; conditions: 0.5 Zn2+/insulin, NaCl 15 mM, glycylglycine 7 mM, tween 20 0.01 %, pH 7.5
Protocol: as §1, §2

[3] = example 1, stabiliser equimolar to insulin
[4] = example 2, stabiliser equimolar to insulin

Row | Compound | Chemical stability at 37°C (% polymer / week) Insulin solution of 3 mM ([1]; example 1, 3 mM insulin) | Chemical stability at 37°C (% polymer / week) Insulin solution of 15 mM ([1]; example 1, 15 mM insulin) | Physical stability of solution at 4 weeks and 5°C Maximal insulin concentration at which the solution was without precipitation up to 15 mM (3, 6, 9, 12, 15mM) [2, 3] | Chemical stability at 37°C (% polymer / week) Insulin solution of 3 mM ([1]; example 2, 3 mM insulin) | Chemical stability at 37°C (% polymer / week) Insulin solution of 15 mM ([1]; example 2, 15 mM insulin) | Physical stability of solution at 4 weeks and 5°C Maximal insulin concentration at which the solution was without precipitation up to 15 mM (3, 6, 9, 12, 15mM) [2, 4]
1 | CC1(C)C2CCC1(C)C(O)C2 (single isomer, unassigned; (+)) [(+)-borneol] | 0.47 % polymer / week | 0.61 % polymer / week | 9 mM |  |  | 
2 | CC1C(O)CC2CC1C2(C)C (single isomer, unassigned; (+)) [(+)-isopinocampheol] | 0.49 % polymer / week | 0.61 % polymer / week | 12 mM |  |  | 
3 | CC1(C)[C@H]2CC[C@](C)(C2)[C@H]1O [(+)-fenchol] | 0.50 % polymer / week | 0.97 % polymer / week | 15 mM |  |  | 
4 | Oc1ccccc1 [phenol] | 0.37 % polymer / week | 0.39 % polymer / week | 15 mM | 0.32 % polymer / week | 0.29 % polymer / week | 15 mM

Next, values leading:

Row | Chemical stability at 37°C (% polymer / week) Insulin solution of 3 mM ([1]; example 1, 3 mM insulin) | Chemical stability at 37°C (% polymer / week) Insulin solution of 15 mM ([1]; example 1, 15 mM insulin) | Physical stability of solution at 4 weeks and 5°C Maximal insulin concentration at which the solution was without precipitation up to 15 mM (3, 6, 9, 12, 15mM) [2, 3] | Chemical stability at 37°C (% polymer / week) Insulin solution of 3 mM ([1]; example 2, 3 mM insulin) | Chemical stability at 37°C (% polymer / week) Insulin solution of 15 mM ([1]; example 2, 15 mM insulin) | Physical stability of solution at 4 weeks and 5°C Maximal insulin concentration at which the solution was without precipitation up to 15 mM (3, 6, 9, 12, 15mM) [2, 4] | Compound
5 | 0.43 % polymer / week | 0.47 % polymer / week | 9 mM |  |  |  | CC1(C)C2CCC1(C)C(O)C2 (single isomer, unassigned; (-)) [(-)-borneol]
6 | 0.53 % polymer / week | 0.56 % polymer / week | 15 mM |  |  |  | CC1C(O)CC2CC1C2(C)C (single isomer, unassigned; (-)) [(-)-isopinocampheol]
7 | 0.64 % polymer / week | 0.95 % polymer / week | 15 mM |  |  |  | CC1(C)[C@H]2CC[C@H](CO)[C@@H]1C2 [(-)-trans-myrtanol]
8 |  |  |  | 0.59 % polymer / week | 0.77 % polymer / week | 9 mM | Nc1ncnc2nc[nH]c12 [adenine]
9 |  |  |  | 0.58 % polymer / week | 0.71 % polymer / week | 15 mM | c1ncc2[nH]cnc2n1 [purine]
